Experiments:
Format in all cases: in vivo
Settings in all cases: 1000 g/h, evaluated after 13 days, five point scale
[1] = system: Lolium perenne (LOLPE); assay: Post-emergence glasshouse herbicide test, Lolium perenne
[2] = system: Solanum nigrum (SOLNI); assay: Post-emergence glasshouse herbicide test, Solanum nigrum
Outline: (§1)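 Plants in standard soil were sprayed 1 day (pre-emergence) or 8 days (post-emergence) after sowing with compound at 1000 g/h in acetone/water (50:50) containing 0.5% Tween 20. Grown at 24/16 °C day/night, 14 h light, 65% humidity; damage scored after 13 days on a five-point scale (5=80-100%, 1=0-19%).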

[3] = system: Amaranthus retoflexus (AMARE); assay: Post-emergence glasshouse herbicide test, Amaranthus retoflexus
[4] = system: Setaria faberi (SETFA); assay: Post-emergence glasshouse herbicide test, Setaria faberi
[5] = system: Echinochloa crus-galli (ECHCG); assay: Post-emergence glasshouse herbicide test, Echinochloa crus-galli
[6] = system: Ipomoea hederacea (IPOHE); assay: Post-emergence glasshouse herbicide test, Ipomoea hederacea
[7] = system: Lolium perenne (LOLPE); assay: Pre-emergence glasshouse herbicide test, Lolium perenne
[8] = system: Solanum nigrum (SOLNI); assay: Pre-emergence glasshouse herbicide test, Solanum nigrum
Outline: as §1

[9] = system: Amaranthus retoflexus (AMARE); assay: Pre-emergence glasshouse herbicide test, Amaranthus retoflexus
[10] = system: Setaria faberi (SETFA); assay: Pre-emergence glasshouse herbicide test, Setaria faberi
[11] = system: Echinochloa crus-galli (ECHCG); assay: Pre-emergence glasshouse herbicide test, Echinochloa crus-galli
[12] = system: Ipomoea hederacea (IPOHE); assay: Pre-emergence glasshouse herbicide test, Ipomoea hederacea

| SMILES | percentage damage caused to the plant, POST Application LOLPE [1] | percentage damage caused to the plant, POST Application SOLNI [2] | percentage damage caused to the plant, POST Application AMARE [3] | percentage damage caused to the plant, POST Application SETFA [4] | percentage damage caused to the plant, POST Application ECHCG [5] | percentage damage caused to the plant, POST Application IPOHE [6] | percentage damage caused to the plant, PRE Application LOLPE [7] | percentage damage caused to the plant, PRE Application SOLNI [8] | percentage damage caused to the plant, PRE Application AMARE [9] | percentage damage caused to the plant, PRE Application SETFA [10] | percentage damage caused to the plant, PRE Application ECHCG [11] | percentage damage caused to the plant, PRE Application IPOHE [12] |
| --- | --- | --- | --- | --- | --- | --- | --- | --- | --- | --- | --- | --- |
| CCn1nnnc1NC(=O)c1nn2cnn(-c3ccc(OC)cc3)c2nc1=O [Compound 1.034] | 4 (4=60-79%) | 5 (5=80-100%) | 5 (5=80-100%) | 5 (5=80-100%) | 5 (5=80-100%) | 5 (5=80-100%) | 4 (4=60-79%) | 5 (5=80-100%) | 5 (5=80-100%) | 5 (5=80-100%) | 5 (5=80-100%) | 3 (3=40-59%) |
| CCCn1nnnc1NC(=O)c1nn2cnn(-c3ccc(OC)cc3)c2nc1=O [Compound 1.035] | 5 (5=80-100%) | 5 (5=80-100%) | 4 (4=60-79%) | 4 (4=60-79%) | 5 (5=80-100%) | 5 (5=80-100%) | 5 (5=80-100%) | 5 (5=80-100%) | 5 (5=80-100%) | 5 (5=80-100%) | 5 (5=80-100%) | 5 (5=80-100%) |
| CCCCn1nnnc1NC(=O)c1nn2cnn(-c3ccc(C(F)(F)F)cc3)c2nc1=O [Compound 1.044] | 3 (3=40-59%) | 5 (5=80-100%) | 4 (4=60-79%) | 3 (3=40-59%) | 1 (1=0-19%) | 5 (5=80-100%) | 3 (3=40-59%) | 5 (5=80-100%) | 3 (3=40-59%) | 3 (3=40-59%) | 2 (2=20-39%) | 3 (3=40-59%) |
| CCn1nnnc1NC(=O)c1nn2cnn(-c3ccc(C(F)(F)F)cc3)c2nc1=O [Compound 1.042] | 3 (3=40-59%) | 5 (5=80-100%) | 4 (4=60-79%) | 4 (4=60-79%) | 3 (3=40-59%) | 4 (4=60-79%) | 4 (4=60-79%) | 5 (5=80-100%) | 5 (5=80-100%) | 5 (5=80-100%) | 5 (5=80-100%) | 4 (4=60-79%) |
| Cn1nnnc1NC(=O)c1nn2cnn(-c3ccc(C(F)(F)F)cc3)c2nc1=O [Compound 1.022] | 3 (3=40-59%) | 5 (5=80-100%) | 5 (5=80-100%) | 5 (5=80-100%) | 5 (5=80-100%) | 4 (4=60-79%) | 4 (4=60-79%) | 5 (5=80-100%) | 5 (5=80-100%) | 5 (5=80-100%) | 5 (5=80-100%) | 4 (4=60-79%) |
| COc1cccc(-n2ncn3nc(C(=O)C4C(=O)CCCC4=O)c(=O)nc23)c1 [Compound 4.010] | 4 (4=60-79%) | 5 (5=80-100%) | 5 (5=80-100%) | 5 (5=80-100%) | 5 (5=80-100%) | 5 (5=80-100%) | 5 (5=80-100%) | 5 (5=80-100%) | 5 (5=80-100%) | 5 (5=80-100%) | 5 (5=80-100%) | 5 (5=80-100%) |
| CCCn1nnnc1NC(=O)c1nn2cnn(CCC)c2nc1=O [Compound 1.031] | 5 (5=80-100%) | 5 (5=80-100%) | 5 (5=80-100%) | 5 (5=80-100%) | 5 (5=80-100%) | 5 (5=80-100%) | 5 (5=80-100%) | 5 (5=80-100%) | 5 (5=80-100%) | 4 (4=60-79%) | 5 (5=80-100%) | 5 (5=80-100%) |
